# Patent US8293751B2, “1,2,3-trisubstituted aryl and heteroaryl derivatives as modulators of metabolism and the prophylaxis and treatment of disorders related thereto such as diabetes and hyperglycemia” (Arena Pharmaceuticals, Inc., priority 2003, dated 2012)
# Entries after “also recorded” stand apart in the source; their conditions may differ.
# Assays:
# [1] = tested on: db mice (C57BL/KsOlahsd-Leprdb, diabetic); assay: Acute response of db mice to RUP3 agonist (blood glucose); type: in vivo; details: male db mice; 60 mg/kg, oral gavage; FIG. 5B
# Procedure: B. […] Male db mice (C57BL/KsOlahsd-Leprdb, diabetic, Harlan) at age of 10 weeks were randomly grouped (n=6) to receive vehicle (oral gavage), Compound B70 (60 mg/kg, oral gavage), or Ex-4 (1 μg/kg, intraperitoneally). After compound administration, food was removed and blood glucose levels were determined at indicated times as shown in FIG. 5B. Reduction in blood glucose at each time point was expressed as percentage of original glucose levels, averaged from six animals for each group.
# RUP3 = biological target: T1, RUP3 (Homo sapiens, UniProt Q8TDV5); assay: 96-Well Cyclic AMP Membrane Assay for RUP3 (Membrane Cyclase Assay); type: biochemical; details: RUP3 membranes, cAMP Flashplate
# T1 construct: seen in the listing only (N); seen in the listing only (C); expressed in transfected cells
# T1 sequence (Q8TDV5 with tags, fused parts or gaps): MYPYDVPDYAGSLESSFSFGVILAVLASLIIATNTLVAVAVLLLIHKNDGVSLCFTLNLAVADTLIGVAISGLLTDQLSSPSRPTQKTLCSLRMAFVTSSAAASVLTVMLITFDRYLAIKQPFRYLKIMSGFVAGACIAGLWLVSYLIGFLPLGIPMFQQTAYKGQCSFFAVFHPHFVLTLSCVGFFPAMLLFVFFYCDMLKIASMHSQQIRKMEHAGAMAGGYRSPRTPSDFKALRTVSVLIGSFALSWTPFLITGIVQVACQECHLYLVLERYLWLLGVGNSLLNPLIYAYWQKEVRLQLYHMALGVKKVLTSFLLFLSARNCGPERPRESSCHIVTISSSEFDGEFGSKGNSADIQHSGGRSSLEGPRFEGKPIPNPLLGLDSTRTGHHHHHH
# Procedure: 96-Well Cyclic AMP Membrane Assay for RUP3
# Binding Buffer—filter through […] Nalgene filter and keep in refrigerator. All buffers and membranes should be kept cold (in ice bucket) while performing assay. • 20 mM Hepes, pH7.4 • 1 mM MgCl2 • 100 mM NaCl • 2× Regeneration Buffer (make in binding buffer): • 20 mM Phosphocreatine (1.02 gm/200 ml binding buffer) • 20 units Creatine phosphokinase (4 mg/200 ml) • 20 uM GTP (make up 10.46 mg/ml in binding buffer and add 200 ul/200 ml) • 0.2 mM ATP (22.04 mg/200 ml) • […] IBMX (44.4 mg IBMX dissolved in 1 ml 100% DMSO first and then add the entire amount to 200 ml of buffer).
# Regeneration buffer can be aliquotted into 40-45 ml portions (in 50 ml sterile tubes) and kept frozen for up to 2 months. Simply put the tube in a beaker with room temperature water to thaw out the regeneration buffer on the day of the assay. […]
# IC50s or EC50s are done in triplicate. […] The membranes are kept in ice all the time, and a polytron (Brinkmann polytron, model #PT-3100) is used (setting 6-7, for 15-20 seconds) to obtain a homogeneous membrane suspension.) Protein concentration is determined by Bradford protein assay kit using instructions given in the kit, using the standard supplied with the kit as a reference. […]
# C57bl/6N mice = assay: Oral glucose tolerance test (oGTT) in mice; type: in vivo; details: male C57bl/6N mice fasted 18 hours; p.o. 30 min before oral dextrose 5 g/kg; FIG. 5A
# Procedure: A. Oral Glucose Tolerance Test (oGTT) (FIG. 5A).
# Male C57bl/6N mice at age of 8 weeks were fasted for 18 hours and randomly grouped (n=11) to receive a RUP3 agonist (Compound B70) at indicated doses, or with control extendin-4 (ex-4, 1 μg/kg), a GLP-1 peptide analog known to stimulate glucose-dependent insulin secretion. Compound B70 was delivered orally via a gavage needle (p.o. volume at 100 μl). Control Ex-4 was delivered intraperitoneally. Thirty minutes after administration of test compound and control ex4, mice were administered orally with dextrose at 5 g/kg dose. Levels of blood glucose were determined at the indicated time points using Glucometer Elite XL (Bayer).
smiles,measurement,setting,value
"O=[N+]([O-])c1c(Nc2ccc(-n3cncn3)cc2)ncnc1N1CCC(Sc2ccccn2)CC1 [Compound B70, {5-Nitro-6-[4-(pyridin-2-ylsulfanyl)-piperidin-1-yl]-pyrimidin-4-yl}-(4-[1,2,4]triazol-1-yl-phenyl)-amine]",blood glucose levels compared to vehicle control,[1],significantly reduces glucose levels compared to vehicle control
same,IC50,RUP3,129 nM
same,blood glucose after glucose challenge (oGTT),C57bl/6N mice,lowered blood glucose in a dose-dependent manner; also recorded: in a dose-dependent manner on the lowering of blood glucose after glucose challenge
